# Laboratory results taken from US20190282580A1, “PRO-INFLAMMATORY ROLE FOR ADENOSINE UPTAKE AND METABOLISM” (priority 2016, published 2019).
# Entries after “also recorded” stand apart in the source; their conditions may differ.
# Tests used:
# IFNβ [1] = assay: IFNβ induction (TaqMan qRT-PCR) in primary human endothelial cells after dsDNA or hCMV; assay type: cell-based; conditions: for IFNβ induction: HUVEC supplemented with the substance, then DNA treatment or hCMV infection
# Excerpt: (§1) Extracellular Ado supplementation enhances anti-viral innate responses: To date, all loss-of function mutations in ADA2 that cause PAN/DADA2 vasculitis either reduce protein levels of ADA2 or dramatically impair enzymatic activity of ADA2, such that loss of enzymatic activity in serum is the defining characteristic of the disease. Loss of ADA2 activity in serum alters catabolism of Ado/dAdo released into circulation from cells and tissues, or produced by dephosphorylation of extracellular ATP/dATP. Ado and dAdo are profoundly immuno-modulatory nucleosides, exerting many effects on cells. Vascular endothelial cells metabolize Ado/dAdo in blood, yet excessive or dysregulated Ado/dAdo signaling has not been examined in endothelium. To examine the effects of Ado on vascular endothelial cells, HUVEC were supplemented with extracellular Ado 24 h prior to treatment with DNA or infection with hCMV.
# Cells: Primary human cells were obtained from Lonza as single donor aliquots. Wherever possible, both male and female donors were analyzed. Human umbilical vascular endothelial cells (HUVEC) and Human aortic endothelial cells (HAEC) were maintained in EGM-2 Bulletkit growth media (Lonza) supplemented with 2% HI-FBS. Human dermal microvascular endothelial cells (HDMVEC), human brain microvascular endothelial cells (HBMVEC), and human kidney microvascular endothelial cells (HKMVEC) were maintained in EBM-2MV Bulletkit growth media (Lonza) supplemented with 5% HI-FBS. Normal human bronchial […] cells (NHBE) were maintained in BEGM Bulletkit growth media (Lonza). U937 were maintained in RPMI supplemented with 5% HI-FBS. For activation of cell-intrinsic innate immune responses through the STING-IFN-I pathway, all cells were stimulated for 3 h with poly dA:dT or VACV70 dsDNA (200-1000 ng/mL) using LyoVec as a transfection reagent (Invivogen), or infected for 3 h with hCMV MOLD at MOI=1.
# Real-time PCR: Total RNA was extracted using the Quick-RNA MiniPrep Plus kit (Zymo Research). Total RNA (200-1000 ng) was used to synthesize complementary DNA using the qScript cDNA synthesis kit (Quanta). Samples were diluted 10-fold and gene expression was analyzed by real-time quantitative PCR on a CFX96 Touch Detection System (Bio-Rad) using FastStart SYBR Green Master Mix (Roche) or TaqMan Universal PCR Master Mix (ThermoFisher Scientific). […]
# [2] = system: pro-inflammatory and anti-viral genes; assay: Pro-inflammatory cytokine and innate immune gene expression in endothelial cells (qRT-PCR, RNAseq); assay type: cell-based, human; conditions: for pro-inflammatory cytokine production: after viral infection, extracellular supplementation; for expression of IL-6 and TNF cytokines: endothelial cells after supplementation
# Method: (§2) Real-time PCR: Total RNA was extracted using the Quick-RNA MiniPrep Plus kit (Zymo Research). Total RNA (200-1000 ng) was used to synthesize complementary DNA using the qScript cDNA synthesis kit (Quanta). Samples were diluted 10-fold and gene expression was analyzed by real-time quantitative PCR on a CFX96 Touch Detection System (Bio-Rad) using FastStart SYBR Green Master Mix (Roche) or TaqMan Universal PCR Master Mix (ThermoFisher Scientific).
# RNAseq: Total RNA was extracted from 10^7 cultured cells using the Quick-RNA MiniPrep Plus kit (Zymo Research). RNA quality was assessed using an Agilent Tapestation, such that all samples should produce RIN^e scores above 9.0. For each sample, 500-1000 ng of total RNA was then prepared into an mRNA library using the Truseq Stranded mRNA Library Prep Kit (Illumina). Resulting libraries were then pooled at equimolar concentrations using Quant-iT PicoGreen dsDNA Assay Kit (Life Technologies) and were deep sequenced on an Illumina 2500 in Rapid Run Mode, producing between 10M and 90M single-end reads with lengths of 50 nucleotides per sample.
# The single-end reads that passed Illumina filters were filtered for reads aligning to tRNA, rRNA, adapter sequences, and spike-in controls. The reads were then aligned to UCSC hg19 reference genome using TopHat (v 1.4.1). DUST scores were calculated with PRINSEQ Lite (v 0.20.3) and low-complexity reads (DUST>4) were removed from the BAM files. The alignment results were parsed via the SAMtools to generate SAM files. Read counts to each genomic feature were obtained with the htseq-count program (v 0.6.0) using the “union” option. After removing absent features (zero counts in all samples), the raw counts were then imported to R/Bioconductor package DESeq2 [5] to identify differentially expressed genes among samples. DESeq2 normalizes counts by dividing each column of the count table (samples) by the size factor of this column. The size factor is calculated by dividing the samples by geometric means of the genes. This brings the count values to a common scale suitable for comparison. P-values for differential expression are calculated using binomial test for differences between the base means of two conditions. These p-values are then adjusted for multiple test correction using Benjamin Hochberg algorithm to control the false discovery rate. […] Cluster analyses including principal component analysis (PCA) and hierarchical clustering were performed using standard algorithms and metrics. Hierarchical clustering was performed using complete linkage with Euclidean metric.
# IRF3 = IRF3 nuclear translocation (in situ immunofluorescence) in primary human endothelial cells after dsDNA or hCMV; assay type: cell-based; conditions: primary human endothelial cells (HUVEC) supplemented with the substance, then DNA treatment or hCMV infection
# Excerpt: as §1
# Cells: Primary human cells were obtained from Lonza as single donor aliquots. Wherever possible, both male and female donors were analyzed. Human umbilical vascular endothelial cells (HUVEC) and Human aortic endothelial cells (HAEC) were maintained in EGM-2 Bulletkit growth media (Lonza) supplemented with 2% HI-FBS. […]
# IRF3 immunostaining: Cells were fixed with 4% PFA for 20 min, washed 3 times with 1×PBS, permeabilized with 0.2% Triton X-100 for 10 min, and blocked with 10% FBS for 30 min Cells were incubated with IRF-3 primary antibody (clone FL-425, Santa Cruz) at 1:200 dilution for 30 min and washed 3 times with 1×PBS. […] Images were acquired at 10× magnification on ImageXpress Micro (Molecular Devices), and images were analyzed using the enhanced translocation module of MetaXpress (Molecular Devices). Individual cells were scored as positive for nuclear translocation if >70% of IRF3 fluorescence was spatially correlated with DAPI fluorescence. […]
# vascular endothelium = conditions: references 22-24; cited from earlier work
# IFNβ [3] = assay: IFNβ induction in monocytes; assay type: cell-based, human
# Method: as §2
# Lentivirus production for shRNA and CRISPR: For shRNA experiments, sequences were selected from the Sigma mission 2.0 library. For CRISPR experiments, sgRNA sequences selected using the CHOPCHOP algorithm and were cloned into the lentiCRISPrv2 vector […]. Plasmids were transformed and amplified in Dh5α competent E. Coli, and purified using the EndoFree Plasmid Maxi kit (QIAGEN). For lentivirus preparation, 293T cells seeded in 6-well plates and transfected with pLKO.1 or lentiCRIPRv2 plasmids and MISSION Lentiviral Packaging Mix (Sigma), using JetPrime transfection reagent (Polyplus). After 24 h, media was changed to full growth media supplemented with 30% FBS. After 48 h, lentiviral supernatants were collected and HUVEC or U937 cells were spin-infected by centrifugation for 1 h at 37 C at 2000 rpm. Cells were selected in 3 ug/mL puromycin media for 2 weeks.
# STING = STING mRNA expression (TaqMan qRT-PCR) in HUVEC; assay type: cell-based, human; conditions: supplemented cells, resting and stimulated
# Method: as §2
# IFNβ [4] = assay: IFNβ induction (TaqMan qRT-PCR) in primary human endothelial cells after dsDNA or hCMV; assay type: cell-based; conditions: for hCMV induced IFNβ: pre-treatment, siControl and siADA2-treated endothelial cells (HUVEC, HBMVEC, HDMVEC)
SMILES,IFNβ induction (IFNβ [1]),pro-inflammatory cytokine production [2],IRF3 activation / nuclear translocation (IRF3),uptake of circulating nucleoside by the vascular endothelium (vascular endothelium),STING mRNA levels / expression (STING),also measured
"Nc1ncnc2c1ncn2[C@@H]1O[C@H](CO)[C@@H](O)[C@H]1O [Ado, adenosine]",significantly enhanced; also recorded: augmented; also recorded: enhances,enhances,significantly enhanced; also recorded: augmented; also recorded: enhances,within a few seconds,–,IFNβ induction (IFNβ [1]; listed as adenosine): enhances; expression of IL-6 and TNF cytokines [2]: enhanced expression; expression of IL-6 and TNF cytokines ([2]; listed as adenosine): enhances
"CCNC(=O)[C@H]1O[C@@H](n2cnc3c(N)ncnc32)[C@H](O)[C@@H]1O [NECA, 5′-N-ethylcarboxamidoadenosine]",did not enhance; also recorded: does not significantly affect,–,did not enhance; also recorded: no effect; also recorded: does not significantly affect,–,–,–
"Nc1ncnc2c1ncn2[C@H]1C[C@H](O)[C@@H](CO)O1 [dAdo, 2′-deoxyadenosine]",significantly enhances; also recorded: augmented,enhances,significantly enhances; also recorded: augmented,within a few seconds,up-regulated,IFNβ induction (IFNβ [3]): enhanced
"OC[C@H]1O[C@@H](n2cnc3c(O)ncnc32)C[C@@H]1O [dIno, deoxyinosine]",–,–,–,–,up-regulated,"IFNβ mRNA induction (IFNβ [1]; prolonged supplementation of HUVEC, dsDNA treatment): specifically augmented"
OCCN(CCO)c1nc(N2CCCCC2)c2nc(N(CCO)CCO)nc(N3CCCCC3)c2n1 [dipyridamole],–,–,–,–,–,"IFNβ levels (IFNβ [4]; TREX1-depleted cells): dampened; dIno-augmented IFNβ (IFNβ [4]; cells supplemented with dIno, sensitivity to DPM): sensitive; hCMV induced IFNβ (IFNβ [4]): significantly reduced; also recorded: dose-dependent decrease; hCMV induced IFNβ (IFNβ [4]; listed as Dipyridamole): reduced; expression of pro-inflammatory and anti-viral genes ([2]; ADA2-depleted and dAdo-supplemented cells, whole-transcriptome RNAseq): broadly inhibited; cytokine production ([2]; ADA2/CECR1-depleted cells): reduces"
OC[C@H]1O[C@@H](n2cnc3c2NC=NC[C@H]3O)C[C@@H]1O [pentostatin],–,–,–,–,–,"augmentation of IRF3 and IFNβ responses by extracellular Ado and dAdo (IFNβ [4]; in the presence of pentostatin to inhibit ADA2, endothelial cells): enhanced"
